Data taken from PubChem BioAssay AID540371 (The Scripps Research Institute Molecular Screening Center, 2011).
The source made the active and inactive calls. The rule behind the calls is not given here.

Molecular target: Melanin-concentrating hormone receptor 1 (Homo sapiens) (UniProt Q99705)
Test: MCHR1 antagonists, late-stage follow-up, selectivity assay for GPR7 antagonist project, cell-based, fluorescence, dose response, set 3 (AID 540371)
Conditions: MCHR1-expressing cells

Row | IC50 (run 1) | IC50 (run 2) | IC50 (run 3) | Compound
1 | > 20 µM (inactive) | > 20 µM (inactive) | > 20 µM (inactive) | CCOc1ccc(Oc2c(Cl)cnn(C3c4ccccc4-c4ccccc43)c2=O)cc1
2 | > 20 µM (inactive) | > 20 µM (inactive) | inactive | COc1ccc(Oc2c(Cl)cnn(Cc3c4ccccc4cc4ccccc34)c2=O)cc1
3 | > 20 µM (inactive) | > 20 µM (inactive) | > 20 µM (inactive) | CCOC(=O)C(c1cccc2ccccc12)n1ncc(Cl)c(Oc2ccc(OC)cc2)c1=O (stereo not drawn)
4 | > 20 µM (inactive) | > 20 µM (inactive) | > 20 µM (inactive) | COc1ccc(Oc2c(Cl)cnn(C3c4ccccc4-c4ccccc43)c2=O)cc1
5 | inactive | > 20 µM (inactive) | > 20 µM (inactive) | CCCOc1ccc(Oc2c(Cl)cnn(Cc3cccc4ccccc34)c2=O)cc1
6 | 1.59 µM | 5.22 µM | 6.71 µM | CCOc1ccc(Oc2c(Cl)cnn(Cc3cccc4ccccc34)c2=O)cc1
7 | 4.49 µM | 4.57 µM | 3.34 µM | COc1ccc(Oc2c(Cl)cnn(Cc3ccccc3C(F)(F)F)c2=O)cc1
8 | 2.09 µM | 2.25 µM | 2.22 µM | COc1ccc(Oc2c(C#N)cnn(Cc3cccc4ccccc34)c2=O)cc1
9 | 8.51 µM | inactive | inactive | COc1ccc(Oc2c(Cl)cnn(Cc3ccccc3)c2=O)cc1
10 | inactive | inactive | inactive | COc1ccc(Sc2c(Cl)cnn(Cc3cccc4ccccc34)c2=O)cc1
11 | 2.39 µM | 6.02 µM | inactive | CCOc1ccc(Oc2c(Cl)c(Br)nn(Cc3cccc4ccccc34)c2=O)cc1
12 | > 20 µM (inactive) | > 20 µM (inactive) | > 20 µM (inactive) | CCCOc1ccc(Oc2c(Cl)cnn(C3c4ccccc4-c4ccccc43)c2=O)cc1
13 | 2.52 µM | 2.33 µM | 2.71 µM | COc1ccc(Oc2c(Cl)c(C#N)nn(Cc3ccccc3C)c2=O)cc1
14 | 0.988 µM | 1.7 µM | 1.61 µM | COc1ccc(Oc2c(Cl)cnn(Cc3cccc4ccccc34)c2=O)cc1
15 | 2.92 µM | 2.87 µM | 5.49 µM | COc1ccc(Oc2c(Cl)cnn(CC(=O)C(c3ccccc3)c3ccccc3)c2=O)cc1
16 | 4.01 µM | inactive | inactive | COc1ccc(Oc2c(Cl)cnn(Cc3ccc4ccccc4c3)c2=O)cc1

Row | IC50 (run 1) | IC50 (run 2) | IC50 (run 3) | Compound
17 | 3.06 µM | 7.68 µM | 5.64 µM | COc1ccc(Oc2c(Cl)cnn(Cc3ccccc3C)c2=O)cc1
18 | 6.19 µM | inactive | inactive | CCOc1ccc(Oc2c(S(C)=O)cnn(Cc3cccc4ccccc34)c2=O)cc1 (stereo not drawn)
19 | 1.95 µM | 1.72 µM | 2.08 µM | CCc1ccc(Oc2c(Cl)cnn(Cc3cccc4ccccc34)c2=O)cc1
20 | inactive | > 20 µM (inactive) | > 20 µM (inactive) | COc1ccc(Oc2c(Cl)cnn(C(C(=O)c3ccccc3)c3ccccc3)c2=O)cc1 (stereo not drawn)
21 | inactive | inactive | > 20 µM (inactive) | COc1ccc(Nc2c(Cl)cnn(Cc3cccc4ccccc34)c2=O)cc1
22 | 1.43 µM | 1.31 µM | 1.45 µM | C=Cc1nn(Cc2ccccc2C)c(=O)c(Oc2ccc(OC)cc2)c1C=C
23 | 5.15 µM | 4.96 µM | 5.67 µM | COc1ccc(Oc2c(Cl)cnn(Cc3cccc4cnccc34)c2=O)cc1
24 | 1.12 µM | 2.24 µM | 4.59 µM | COc1ccc(Oc2c(Cl)cnn(Cc3ccccc3-c3ccccc3)c2=O)cc1
25 | 7.4 µM | > 20 µM (inactive) | > 20 µM (inactive) | O=c1c(Oc2ccc3c(c2)CCO3)c(Cl)cnn1Cc1cccc2ccccc12
26 | 0.892 µM | 2.14 µM | 1.66 µM | COc1ccc(Oc2c(Br)cnn(Cc3cccc4ccccc34)c2=O)cc1
27 | 1.5 µM | inactive | 6.46 µM | COc1ccc(Oc2c(Cl)cnn(Cc3cc(C)cc(C)c3)c2=O)cc1
28 | inactive | > 20 µM (inactive) | 7.22 µM | COc1ccc(Oc2c(Cl)cnn(C(c3ccccc3)c3ccccc3)c2=O)cc1
29 | 0.77 µM | 0.815 µM | 0.836 µM | COc1ccc(Oc2c(Cl)cnn(Cc3c(C)ccc4ccccc34)c2=O)cc1
30 | 8.48 µM | inactive | 8.11 µM | CCOC(=O)C(c1ccccc1)n1ncc(Cl)c(Oc2ccc(OC)cc2)c1=O (stereo not drawn)
31 | inactive | inactive | inactive | COc1ccc(Oc2c(Cl)cnn(Cc3c(F)cccc3F)c2=O)cc1
